Data published in patent US11446300B2 (Alexion Pharmaceuticals, Inc., priority 2015, dated 2022).
Read-outs that look alike come from different tables or passages of the source. Peptide text beside a SMILES is read from it. * marks the point of attachment. Cbz = O=C(OCc1ccccc1)*; CH2F = FC*

How the values were obtained:
[1] = test system: CLL primary cells; test: CLL cell viability with IL-4/CD40L, PI/Annexin V staining; type: cell-based, human
Protocol: Viability was assessed using (A) PI/Annexin V staining by flow cytometry. A representative plot is shown or (B) summarized (n=9) showing % of control (PI/Annexin V negative cells). […] Points below the diagonal line represent synergistic interactions, above the line are additive.
Values above the diagonal line represent additive interaction and those under the line are synergistic.

[2] = test system: VAL; test: Combination synergy, Cell Titer Glo, 72 hours; type: cell-based
Protocol: (§1) Synergistic anti-tumor activity in DLBCL cell lines was determined using the Cell Titer Glo assay. Briefly, 5,000 cells were plated in 96 well plates in complete tissue culture media. […] Cells were incubated with or without drug for 72 hours in a 37° C. tissue culture incubator prior to evaluation by CellTiter Glo as per the manufacturer protocol (Promega). Synergy was evaluated by calculating combination index score, as described elsewhere (Jacquement et al, Molecular Cancer 2012) following IC50 determination using Prism software. The compounds are commercially available or are made according to synthetic methods known to those skilled in the art.
as §1, with “calculating a” for “calculating”

[3] = test system: DHL4 (SU-DHL4); test: Combination synergy, Cell Titer Glo, 72 hours; type: cell-based; settings: Homo sapiens
Protocol: as §1
as §1, with “calculating a” for “calculating”

[4] = test system: Lyl (OCI-Lyl); test: Combination synergy, Cell Titer Glo, 72 hours; type: cell-based
Protocol: as §1
as §1, with “calculating a” for “calculating”

[5] = test system: DHL10; test: Combination synergy, Cell Titer Glo, 72 hours; type: cell-based
Protocol: as §1
as §1, with “calculating a” for “calculating”

[6] = test system: DHL6; test: Combination synergy, Cell Titer Glo, 72 hours; type: cell-based
Protocol: as §1
as §1, with “calculating a” for “calculating”

[7] = test system: TOLEDO; test: Combination synergy, Cell Titer Glo, 72 hours; type: cell-based; settings: Homo sapiens
Protocol: as §1

[8] = test system: U2932; test: Combination synergy, Cell Titer Glo, 72 hours; type: cell-based; settings: Homo sapiens
Protocol: as §1

[9] = test system: DLCL2; test: DLBCL cell line viability, CellTiter Glo, ten-point curve; type: cell-based; settings: read-out: IC50 of Kinase Inhibitor in Cell Titer Glo Assay
Text: (§2) Each IC50 value is an average of at least four replicate experiments.

[10] = test system: DHL6; test: as above; type: cell-based; settings: read-out: IC50 of Kinase Inhibitor in Cell Titer Glo Assay
Text: as §2

[11] = test system: DHL4; test: as above; type: cell-based; settings: read-out: IC50 of Kinase Inhibitor in Cell Titer Glo Assay
Text: as §2

[12] = test system: TOLEDO; test: as above; type: cell-based; settings: Homo sapiens; TOLEDO cell line; read-out: IC50 of Kinase Inhibitor in Cell Titer Glo Assay
Text: as §2

[13] = test system: DHL5; test: as above; type: cell-based; settings: read-out: IC50 of Kinase Inhibitor in Cell Titer Glo Assay
Text: as §2

[14] = test system: DB; test: as above; type: cell-based; settings: Homo sapiens; DB cell line; read-out: IC50 of Kinase Inhibitor in Cell Titer Glo Assay
Text: as §2

[15] = test system: DHL8; test: as above; type: cell-based; settings: read-out: IC50 of Kinase Inhibitor in Cell Titer Glo Assay
Text: as §2

[16] = test system: U2932; test: as above; type: cell-based; settings: Homo sapiens, read-out: IC50 of Kinase Inhibitor in Cell Titer Glo Assay
Text: as §2

[17] = test system: LY10 (OCI-LY10); test: as above; type: cell-based; settings: LY10 cell line; read-out: IC50 of Kinase Inhibitor in Cell Titer Glo Assay
Text: as §2

[18] = test system: LY1; test: as above; type: cell-based; settings: read-out: IC50 of Kinase Inhibitor in Cell Titer Glo Assay
Text: as §2

[19] = test system: DHL10; test: as above; type: cell-based; settings: read-out: IC50 of Kinase Inhibitor in Cell Titer Glo Assay
Text: as §2

[20] = test system: LY7; test: as above; type: cell-based; settings: read-out: IC50 of Kinase Inhibitor in Cell Titer Glo Assay
Text: as §2

[21] = test system: RCK8; test: as above; type: cell-based; settings: Homo sapiens; RCK8 cell line; read-out: IC50 of Kinase Inhibitor in Cell Titer Glo Assay
Text: as §2

[22] = test system: LY18; test: as above; type: cell-based; settings: read-out: IC50 of Kinase Inhibitor in Cell Titer Glo Assay
Text: as §2

[23] = test system: VAL; test: as above; type: cell-based; settings: read-out: IC50 of Kinase Inhibitor in Cell Titer Glo Assay
Text: as §2

[24] = test system: WT BTK-transfected TMD8 cells; test: Cell count and viability of transfected TMD8 cells; type: cell-based; settings: 250 nM; 7 days
Text: (§3) Cell transfection, cell count and viability assay: TMD8 cells were transfected with constructs of WT BTK or BTK^C481S mutants using kit V, Program U-13 on Amaxa Nucleofector, according to the manufacturer's protocols (Amaxa, Cologne, Germany). After transfection, the cells were co-cultured with NKTert cells in a 24-well plate for 24 hrs for recovery.

[25] = test system: BTK^C481S-transfected TMD8 cells; test: Cell count and viability of transfected TMD8 cells; type: cell-based; settings: 250 nM; 7 days
Text: as §3

[26] = test system: OCI-Ly18; test: Combination synergy, Cell Titer Glo, 72 hours; type: cell-based; settings: Homo sapiens, OCI-Ly18, 72 h
Protocol: as §1, with “calculating a” for “calculating”

[27] = test system: primary CLL cells; test: Apoptosis in primary CLL samples, propidium iodide/Annexin V staining and PARP cleavage; type: cell-based, human; settings: co-treatment with cerdulatinib

IC50 [17] | Structure (SMILES) | IC50 [2] | IC50 ([3]; SU-DHL-4, 72 h, read-out: IC50) | IC50 [4] | IC50 [5] | IC50 [6] | IC50 [9] | IC50 [10] | IC50 [11] | IC50 [12] | IC50 [13] | IC50 [14] | IC50 [15] | IC50 [16] | IC50 [18] | IC50 [19] | IC50 [20] | IC50 [21] | IC50 [22] | IC50 [23] | other results
 | CC1(C)CCC(CN2CCN(c3ccc(C(=O)NS(=O)(=O)c4ccc(NCC5CCOCC5)c([N+](=O)[O-])c4)c(Oc4cnc5[nH]ccc5c4)c3)CC2)=C(c2ccc(Cl)cc2)C1 [ABT-199, 4-(4-{[2-(4-chlorophenyl)-4,4-dimethylcyclohex-1-en-1-yl]methyl}piperazin-1-yl)-N-({3-nitro-4-[(tetrahydro-2H-pyran-4-ylmethyl)amino]phenyl}-sulfonyl)-2-(1H-pyrrolo[2,3-b]pyridin-5-yloxy)benzamide, reference compound] | 4300 nM | 1630 nM | 750 nM | 3700 nM | 23 nM |  |  |  |  |  |  |  |  |  |  |  |  |  |  | CLL cell viability ([1]; IL-4/CD40L for 6 hours, then drug for 24 hours, n=9): protected CLL cells against ABT-199 induced apoptosis; CLL cell viability ([1]; absence of IL-4/CD40L, 24 hours): significantly reduced CLL cell viability; IC50 ([3]; SU-DHL-4, SU-DHL4 cell line, read-out: IC50 value): 1630 nM; IC50 [7]: 230 nM; IC50 ([8]; U2932, 72 h, read-out: IC50): 490 nM; IC50 ([8]; U2932 cell line, read-out: IC50 value): 490 nM
40 nM | COc1cccc2c1C(=O)c1c(O)c3c(c(O)c1C2=O)C[C@@](O)(C(=O)CO)C[C@@H]3O[C@H]1C[C@H](N)[C@H](O)[C@H](C)O1 [Doxo, Doxorubicin] |  |  |  |  |  | 180 nM | 140 nM | 100 nM | 440 nM | 30 nM | 370 nM | 150 nM | 350 nM | 190 nM | 300 nM | 140 nM | 200 nM | 60 nM | 220 nM | 
5700 nM | C[C@H](Nc1ncnc2nc[nH]c12)c1cc2cccc(Cl)c2c(=O)n1-c1ccccc1 [IPI-145] |  |  |  |  |  | 5000 nM | 2 nM | 3700 nM | 18000 nM | 330 nM | ≥ 50000 nM | 45000 nM | 27000 nM | 1300 nM | 4100 nM | 25000 nM | ≥ 50000 nM | 960 nM | 21000 nM | 
 | C=CC(=O)N1CCC[C@@H](n2nc(-c3ccc(Oc4ccccc4)cc3)c3c(N)ncnc32)C1 [Ibrutinib, 1-[(3R)-3-[4-Amino-3-(4-phenoxyphenyl)-1H-pyrazolo[3,4-d]pyrimidin-1-yl]piperidin-1-yl]prop-2-en-1-one, reference compound] | 4560 nM | 3100 nM | 750 nM | 1890 nM | 310 nM |  |  |  |  |  |  |  |  |  |  |  |  |  |  | cell growth [24]: similarly inhibited; cell growth [25]: less sensitive; IC50 [26]: 1240 nM
12000 nM | CC[C@H](Nc1ncnc2[nH]cnc12)c1nc2cccc(F)c2c(=O)n1-c1ccccc1 [Idelalisib] |  |  |  |  |  | 15000 nM | 30 nM | 12000 nM | ≥ 50000 nM | 1300 nM | 42000 nM | 49000 nM | 40000 nM | 4900 nM | 12000 nM | 13000 nM | ≥ 50000 nM | 3800 nM | 29000 nM | 
 | CC(NC(=O)C(NC(=O)OCc1ccccc1)C(C)C)C(=O)NC(CC(=O)O)C(=O)CF (stereo not drawn) [ZVAD, reference compound] (Cbz-Val-Ala-Asp-CH2F; configuration not given here) |  |  |  |  |  |  |  |  |  |  |  |  |  |  |  |  |  |  |  | cerdulatinib induced apoptosis on co-treatment [27]: inhibited
